ChEMBL document CHEMBL3244013, “Central nervous system activity of a novel class of annelated 1,4-benzodiazepines, aminomethylene-2,4-dihydro-1H-imidazo[1,2-a][1,4]benzodiazepin-1-ones” (J Med Chem, 1977)

What was measured:
Mus musculus [1] = assay: Antianxiety activity in po dosed CD-1 mouse assessed as inhibition of foot shock-induced aggression after 30 mins relative to control; assay type: functional; conditions: CD-1, po, 0.5 h
Mus musculus [2] = assay: Anticonvulsant activity in po dosed CD-1 mouse assessed as protection against maximal electroshock-induced convulsion; assay type: functional; conditions: CD-1, po
Mus musculus [3] = assay: Anticonvulsant activity in po dosed CD-1 mouse assessed as protection against pentylenetetrazole-induced convulsion; assay type: functional; conditions: CD-1, po
Mus musculus [4] = assay: Anticonvulsant activity in po dosed CD-1 mouse assessed as protection against strychnine-induced convulsion after 30 mins; assay type: functional; conditions: CD-1, po, 0.5 h
Mus musculus [5] = assay: Potentiation of hexobarbital-induced sedative effect in po dosed CD-1 mouse assessed as loss of righting reflex after 30 secs; assay type: functional; conditions: CD-1, po
Mus musculus [6] = assay: Potentiation of chlorprothixene-induced sedative effect in po dosed CD-1 mouse assessed as loss of righting reflex; assay type: functional; conditions: CD-1, po
Mus musculus [7] = assay: Induction of muscle relaxation in po dosed CD-1 mouse after 30 mins by rotary drum test; assay type: functional; conditions: CD-1, po, 0.5 h
Mus musculus [8] = assay: Acute toxicity in po dosed CD-1 mouse assessed as mortality after 24 hrs; assay type: organism-based; conditions: in vivo

Compound	ED50 (Mus musculus [1]) [mg/kg]	ED50 (Mus musculus [2]) [mg/kg]	ED50 (Mus musculus [3]) [mg/kg]	ED50 (Mus musculus [4]) [mg/kg]	ED50 (Mus musculus [5]) [mg/kg]	ED50 (Mus musculus [6]) [mg/kg]	ED50 (Mus musculus [7]) [mg/kg]	ED50 (Mus musculus [8]) [mg/kg]
CC(C)N1CCN(/C=C2\N=C3CN=C(c4ccccc4)c4cc(Cl)ccc4N3C2=O)CC1	2.1	7	1.25	5.8	6.6	6.4	12	> 1000
O=C1/C(=C/c2ccccc2)N=C2CN=C(c3ccccc3)c3cc(Cl)ccc3N12	–	–	> 50	> 50	> 50	–	–	> 1000
CN(C)c1ccc(/C=C2\N=C3CN=C(c4ccccc4)c4cc(Cl)ccc4N3C2=O)cc1	> 20	–	> 50	> 50	> 50	–	> 50	> 1000
CCCCN1CCN(/C=C2\N=C3CN=C(c4ccccc4)c4cc(Cl)ccc4N3C2=O)CC1	1.5	20.5	2	24	44	> 50	9	> 1000
CCN1CCN(/C=C2\N=C3CN=C(c4ccccc4Cl)c4cc([N+](=O)[O-])ccc4N3C2=O)CC1	0.34	2.8	0.15	2.8	0.8	0.99	0.46	> 1000
CCN1CCN(/C=C2\N=C3CN=C(c4ccccc4F)c4cc([N+](=O)[O-])ccc4N3C2=O)CC1	0.64	2.6	0.18	3.75	0.72	4	0.37	> 1000
O=C1/C(=C/NCCO)N=C2CN=C(c3ccccc3)c3cc(Cl)ccc3N12	1.5	9.5	–	16	3.6	–	2.6	> 1000
CN/C=C1\N=C2CN=C(c3ccccc3)c3cc(Cl)ccc3N2C1=O	5.3	–	–	> 50	> 50	> 50	–	> 1000
O=C1/C(=C/N2CCOCC2)N=C2CN=C(c3ccccc3)c3cc(Cl)ccc3N12	2.4	7	2.3	> 50	> 50	20.3	29	> 1000
C/C(=C1/N=C2CN=C(c3ccccc3)c3cc(Cl)ccc3N2C1=O)N1CCNCC1	> 20	14	4	> 50	5.2	> 50	> 50	> 1000
CCN/C=C1\N=C2CN=C(c3ccccc3Cl)c3cc(Cl)ccc3N2C1=O	1	18	0.39	25	0.27	9.6	11.5	> 1000
O=C1/C(=C/NC2CCCCC2)N=C2CN=C(c3ccccc3)c3cc(Cl)ccc3N12	1.4	8.5	2.35	15	8.3	6.2	–	> 1000
CCN1CCN(/C=C2\N=C3CN=C(c4ccccc4Cl)c4cc(Cl)ccc4N3C2=O)CC1	0.5	2.2	0.087	2.3	2.5	1.2	0.56	> 1000
O=C1/C(=C/N2CCCCC2)N=C2CN=C(c3ccccc3)c3cc(Cl)ccc3N12	> 20	> 50	16	> 50	1	> 50	–	> 1000
CCN/C=C1\N=C2CN=C(c3ccccc3)c3cc(Cl)ccc3N2C1=O	1.45	10	4	> 50	7.2	> 10	1.8	> 1000
O=C1/C(=C/N2CCSCC2)N=C2CN=C(c3ccccc3)c3cc(Cl)ccc3N12	> 20	> 50	> 50	> 50	> 50	> 50	> 50	> 1000
CCCN/C=C1\NC2CN=C(c3ccccc3)c3cc(Cl)ccc3N2C1=O (stereo unspecified)	0.92	4	1.55	> 50	3.9	2.6	2.8	> 1000
CCN(CC)CCN/C=C1\N=C2CN=C(c3ccccc3)c3cc(Cl)ccc3N2C1=O	> 20	> 50	16	> 50	> 50	> 50	> 50	> 1000
